Our source for the IC50, MOT and inhibition values is ChEMBL document CHEMBL1131401, “Potent and selective bicyclic lactam inhibitors of thrombin: Part 2: P1 modifications” (Bioorg Med Chem Lett, 1998).

Assay [1] concerns the target Prothrombin (Homo sapiens, UniProt P00734). In words: In vitro inhibitory activity against thrombin(FIIa).
Assay [2] relates to Rattus norvegicus. In words: In vivo mean occlusion time for the antithrombic activity in rat arterial thrombosis model. Format: functional.
Assay [3] concerns the target T1, Serine protease 1 (Homo sapiens, UniProt P07477). In words: In vitro inhibitory activity against trypsin.
Assay [4] deals with T1, Serine protease 1. Put plainly: In vitro inhibitory activity against trypsin at concentration 100 uM.

T1 sequence (P07477 whole entry): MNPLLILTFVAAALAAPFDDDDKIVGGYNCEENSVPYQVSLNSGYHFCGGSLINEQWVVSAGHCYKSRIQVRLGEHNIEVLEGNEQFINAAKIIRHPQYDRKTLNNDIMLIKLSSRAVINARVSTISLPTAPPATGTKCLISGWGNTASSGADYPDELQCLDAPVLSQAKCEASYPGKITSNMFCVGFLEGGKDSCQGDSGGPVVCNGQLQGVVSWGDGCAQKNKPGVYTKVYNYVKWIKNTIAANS

For `N=C(N)N1CCC([C@H](NC(=O)[C@@H]2CC[C@H]3CN(C(=O)CCc4ccccc4)CC(=O)N32)C(=O)c2nccs2)CC1`, the values for the IC50 in assay [1] and in assay [3] were 1 nM and 11900 nM, respectively. Besides, the MOT in assay [2] is reported as 57 min.

Regarding `N=C(N)N1CCC([C@@H](NC(=O)[C@@H]2CC[C@H]3CN(C(=O)CCc4ccccc4)CC(=O)N32)C(=O)c2nccs2)CC1`, in assay [4], the inhibition came out at 31%. In assay [1], the IC50 stood at 150 nM.

Consider `N[C@H]1CC[C@H]([C@H](NC(=O)[C@@H]2CC[C@H]3CN(C(=O)CCc4ccccc4)CC(=O)N32)C(=O)c2nccs2)CC1`, for which the concentration for half-maximal inhibition (IC50) was found to be 33 nM in assay [1] and 8990 nM in assay [3]. The molecule also had an MOT in assay [2] of 48 min.

As for `N=C(N)c1cccc(C[C@H](NC(=O)[C@@H]2CC[C@H]3CN(C(=O)CCc4ccccc4)CC(=O)N32)C(=O)c2nccs2)c1`, the IC50 in assay [1] is 77 nM; in assay [3] it was 7750 nM. In assay [2], this molecule registered an MOT of 18 min.

Take `N=C(N)N1CCCC(C[C@H](NC(=O)[C@@H]2CC[C@H]3CN(C(=O)CCc4ccccc4)CC(=O)N32)C(=O)c2nccs2)C1` (some centres undefined): the IC50 in assay [1] came out at 30 nM; in assay [3], 4360 nM. The molecule also returned an MOT in assay [2] greater than 60 min.

In assay [2], `N=C(N)NCCC[C@H](NC(=O)[C@@H]1CC[C@H]2CN(C(=O)CCc3ccccc3)CC(=O)N21)C(=O)c1nccs1` gave an MOT of 42 min. In assay [3], this molecule came in with an IC50 of less than 1 nM.

Regarding `N=C(N)N1CCCC(C[C@@H](NC(=O)[C@@H]2CC[C@H]3CN(C(=O)CCc4ccccc4)CC(=O)N32)C(=O)c2nccs2)C1` (some centres undefined), the IC50 in assay [1] was determined as 137 nM; in assay [3], 31600 nM. Also, in assay [2], the MOT is 27 min.

One may read the IC50 as the concentration that inhibits the measured activity by half. Read a low IC50 as greater potency in that assay. What is called inhibition is the percentage by which the read-out fell short of the control.
